{"source": "patent US20100189797A1", "about": "“ORAL ANTIDEPRESSANT FORMULATION” (priority 2002, published 2010)", "key": {"stressed rats": {"test_system": "stressed rats", "assay": "Tests made on rats: activity level of stressed rats", "type": "in vivo", "conditions": "5 mg fluoxetine per kg and/or 50 mg ASA per kg, unstressed control 30, stressed 2", "description": "Four groups of rats have been stressed. One group of rats remain unstressed so as to serve as control.\nAfter being stressed, the rats of the first group received a dose of 50 mg ASA per kg. The second group of rats received no treatment. The third group of rats received 5 mg fluoxetine per kg, and the fourth group of rats received simultaneously 5 mg fluoxetine+50 mg ASA per kg.\nThe treatment was continued during 3 weeks.\nIn said test, the doses of ASA and fluoxetine have been adapted for rats."}, "SSRI responding human": {"test_system": "SSRI responding human", "assay": "Higher dose of ASA administered to SSRI responding human", "type": "in vivo", "conditions": "ASA dose of 100 mg"}, "volunteers": {"test_system": "volunteers", "assay": "Informal tests on volunteers: oral ASA dose with oral antidepressant", "type": "in vivo, human", "conditions": "oral ASA less than 50 mg with an antidepressant", "description": "From said tests and informal tests made on volunteers, in which after (just after, less than 5 minutes after) and prior oral administration of an antidepressant, a dose of ASA was orally administered, it appears that the oral dose of ASA had to be lowered to less than 50 mg, especially between 5 and 50 mg.\nFrom this test, it seems that the antidepressant action could already be achieved in less than 7 days, and even in less than 3 to 4 days, although when not using low dose of ASA, the antidepressant action is for example of at least 4 weeks for SSRI."}}, "data": [{"smiles": "CNCCC(Oc1ccc(C(F)(F)F)cc1)c1ccccc1", "note": "(racemic) [fluoxetine, (±)-N-methyl-3-phenyl-3-[(α-α-α-trifluoro-p-tolyl)oxy] propylamine]", "values": [{"measurement": "activity after 1 week of treatment", "setting": "stressed rats", "result": "no increase at all of the activity"}, {"measurement": "activity after three weeks of treatment", "setting": "stressed rats", "result": "about 25"}]}, {"smiles": "CC(=O)Oc1ccccc1C(=O)O", "note": "[ASA, acetyl salicylic acid]", "values": [{"measurement": "influence on the time of onset of antidepressant action", "setting": "SSRI responding human", "result": "no influence or even to have a negative influence"}, {"measurement": "activity after 1 week of treatment", "setting": "stressed rats", "result": "no increase at all of the activity"}, {"measurement": "activity after three weeks of treatment", "setting": "stressed rats", "result": "no improvement of activity"}, {"measurement": "bleeding", "setting": "volunteers", "result": "no bleeding was observed"}]}]}
